Data on five compounds can be found in article PMC7597670 (Bioorganic & medicinal chemistry letters, 2010).

Data set [1] can be described thus: Pharmacokinetics after single oral and intravenous administration in rats. The following applies: for AUC / Cmax: rat, plasma, po, 10 mg/kg; for BA: rats, 10 mg/kg po vs 3 mg/kg iv.
For another data set, the target named is human CCR5 (Homo sapiens, UniProt P51681). In kind it is cell-based. The following applies: versus the other three stereoisomers of the hydroxylated analog of 1.
Sequence of human CCR5 (P51681 whole entry): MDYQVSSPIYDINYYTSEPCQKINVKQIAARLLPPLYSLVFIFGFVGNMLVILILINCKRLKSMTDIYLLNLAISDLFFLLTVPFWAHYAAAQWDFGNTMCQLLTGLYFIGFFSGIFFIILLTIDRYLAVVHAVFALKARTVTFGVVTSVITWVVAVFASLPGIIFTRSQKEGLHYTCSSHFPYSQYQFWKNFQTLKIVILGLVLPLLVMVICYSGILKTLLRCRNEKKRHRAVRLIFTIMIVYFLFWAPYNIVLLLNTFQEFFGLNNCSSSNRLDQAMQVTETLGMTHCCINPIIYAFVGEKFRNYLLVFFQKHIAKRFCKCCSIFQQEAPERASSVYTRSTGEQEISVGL
A further data set relates to HIV-1MM (R5MDR). The following applies: read-out: Anti-HIV-1 activity IC50 HIV-1MM (R5MDR); inhibition of HIV p24 antigen expression in PBMC; multidrug-resistant.
A further data set relates to HIV-1Ba-L (R5). Put plainly: Anti-HIV-1 activity: inhibition of HIV p24 antigen expression in PBMC, HIV-1Ba-L. In kind it is cell-based. The following applies: read-out: Anti-HIV-1 activity IC50 HIV-1Ba-L (R5).

For the compound `CCCCN1C(=O)C(CC(C)C)NC(=O)C12CCN(Cc1ccc(Oc3ccccc3)cc1)CC2.Cl` (stereo not drawn) [Compound 1], in data set [1], the AUC came to 96.7 ng·h/mL and the Cmax is 33.3 ng/mL.
For `CCCCN1C(=O)C(CC2CCCCC2)NC(=O)C12CCN(Cc1ccc(Oc3ccccc3)cc1)CC2.Cl` (stereo not drawn) [Compound 2], in data set [1], the AUC is 24.8 ng·h/mL, the highest level (Cmax) was 5.6 ng/mL and the BA worked out at 1.9%.
Turning to `CCCCN1C(=O)[C@@H]([C@H](O)C(C)C)NC(=O)C12CCN(Cc1ccc(Oc3ccccc3)cc1)CC2.Cl` [Compound 3], the “fold higher potency than the other isomers in Ca assay” value on human CCR5 is reported as 4.5-12 fold.
With `CCCCN1C(=O)[C@H](CC2CCCCC2)NC(=O)C12CCN(Cc1ccc(Oc3ccc(C(=O)O)cc3)cc1)CC2.Cl` [Compound 5], the BA in data set [1] is given as 34%.
In the case of SCH-351125, the IC50 with HIV-1MM (R5MDR) amounted to 3 ± 0.5 nM; in the data set on HIV-1Ba-L (R5), 4 ± 2 nM.

The AUC is the area under the concentration-time curve, a measure of exposure. Read a low AUC as less exposure. One may read the Cmax as the peak of the concentration-time curve. Usually IC50 stands for the concentration that gives 50% inhibition.
